Measurements as given in PubChem BioAssay AID328 (DTP/NCI, 2004).
Several values for one entry are separate records, joined by “and”; a condition that tells them apart may be missing. Identical values can stand only once. Inconclusive results and toxic doses are left out.

System: BDF1 mice, P388 leukemia ip, median survival T/C
Assay: NCI In Vivo Anticancer Drug Screen. Data for tumor model P388 Leukemia (intraperitoneal) in B6D2F1 (BDF1) mice
Conditions: endpoint: median survival time, higher = longer survival
Method in brief: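 Reported as T/C, where T is the survival measurement in dosed animals and C the same measurement in vehicle controls.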

[1] = dose: 6.25 mg/kg/injection, schedule: Q01DX009 (ip), vehicle: saline
[2] = dose: 50.0 mg/kg/injection, schedule: Q01DX009 (ip), vehicle: saline
[3] = dose: 100.0 mg/kg/injection, schedule: Q01DX009 (ip), vehicle: saline
[4] = dose: 100.0 mg/kg/injection, schedule: Q04DX003 (ip), vehicle: saline
[5] = dose: 200.0 mg/kg/injection, schedule: Q01DX009 (ip), vehicle: saline
[6] = dose: 100.0 mg/kg/injection, schedule: Q04DX002 (ip), vehicle: saline with Tween-80
[7] = dose: 200.0 mg/kg/injection, schedule: Q04DX002 (ip), vehicle: saline with Tween-80
[8] = dose: 50.0 mg/kg/injection, schedule: Q04DX003 (ip), vehicle: saline with Tween-80
[9] = dose: 100.0 mg/kg/injection, schedule: Q04DX003 (ip), vehicle: saline with Tween-80
[10] = dose: 50.0 mg/kg/injection, schedule: Q01DX009 (ip), vehicle: saline with Tween-80
[11] = dose: 100.0 mg/kg/injection, schedule: Q04DX003 (sc), vehicle: olive oil, sesame oil, peanut oil
[12] = dose: 200.0 mg/kg/injection, schedule: Q04DX003 (sc), vehicle: olive oil, sesame oil, peanut oil
[13] = dose: 400.0 mg/kg/injection, schedule: Q04DX003 (sc), vehicle: olive oil, sesame oil, peanut oil

## COc1ccc(C(C#N)CC(=O)c2ccc(OC)c(OCc3ccccc3)c2)cc1OC (configuration not stated)
[1]
  T/C: 90 % of control
dose: 12.5 mg/kg/injection, schedule: Q01DX009 (ip), vehicle: saline
  T/C: 95 % of control
dose: 25.0 mg/kg/injection, schedule: Q01DX009 (ip), vehicle: saline
  T/C: 91 % of control
dose: 25.0 mg/kg/injection, schedule: Q04DX003 (ip), vehicle: saline
  T/C: 114 % of control
[2]
  T/C: 99 % of control
dose: 50.0 mg/kg/injection, schedule: Q04DX003 (ip), vehicle: saline
  T/C: 96 % of control
[3]
  T/C: 90 % of control
[4]
  T/C: 96 % of control
[5]
  T/C: 86 % of control
dose: 200.0 mg/kg/injection, schedule: Q04DX003 (ip), vehicle: saline
  T/C: 107 % of control
dose: 400.0 mg/kg/injection, schedule: Q01DX009 (ip), vehicle: saline
  T/C: 95 % of control
dose: 400.0 mg/kg/injection, schedule: Q04DX003 (ip), vehicle: saline
  T/C: 100 % of control

## O=C(Nc1ccccc1)c1c(-c2ccccc2)oc2ccccc2c1=O
dose: 50.0 mg/kg/injection, schedule: Q04DX002 (ip), vehicle: saline with Tween-80
  T/C: 95 % of control
[6]
  T/C: 115 % of control
[7]
  T/C: 100 % of control

## CCN(C(C)(C)C(SSSC(c1ccc(Cl)cc1)C(C)(C)N(CC)S(C)(=O)=O)c1ccc(Cl)cc1)S(C)(=O)=O (configuration not stated)
[8]
  T/C: 109 % of control
[9]
  T/C: 122 % of control
dose: 200.0 mg/kg/injection, schedule: Q04DX003 (ip), vehicle: saline with Tween-80
  T/C: 122 % of control

## N#Cc1ccc(S(N)(=O)=O)cc1
dose: 12.5 mg/kg/injection, schedule: Q04DX003 (ip), vehicle: Klucel (hydroxypropylcellulose) (HPC)
  T/C: 109 % of control
dose: 25.0 mg/kg/injection, schedule: Q01DX009 (ip), vehicle: Klucel (hydroxypropylcellulose) (HPC)
  T/C: 111 % of control
dose: 25.0 mg/kg/injection, schedule: Q04DX003 (ip), vehicle: Klucel (hydroxypropylcellulose) (HPC)
  T/C: 109 % of control
dose: 50.0 mg/kg/injection, schedule: Q01DX009 (ip), vehicle: Klucel (hydroxypropylcellulose) (HPC)
  T/C: 111 % of control
[10]
  T/C: 100 % of control
dose: 50.0 mg/kg/injection, schedule: Q04DX003 (ip), vehicle: Klucel (hydroxypropylcellulose) (HPC)
  T/C: 104 % of control
dose: 100.0 mg/kg/injection, schedule: Q01DX009 (ip), vehicle: Klucel (hydroxypropylcellulose) (HPC)
  T/C: 111 % of control

## COc1ccc([I+]c2ccccc2)cc1
dose: 1.56 mg/kg/injection, schedule: Q01DX009 (ip), vehicle: saline
  T/C: 87 % of control
dose: 3.13 mg/kg/injection, schedule: Q01DX009 (ip), vehicle: saline
  T/C: 104 % of control
[1]
  T/C: 112 % of control and 120 % of control
dose: 12.5 mg/kg/injection, schedule: Q04DX003 (ip), vehicle: saline sonified
  T/C: 105 % of control
dose: 25.0 mg/kg/injection, schedule: Q04DX003 (ip), vehicle: saline sonified
  T/C: 110 % of control

## CC(=O)CC(=O)NCCCc1ccccc1
[11]
  T/C: 109 % of control
[12]
  T/C: 100 % of control
[13]
  T/C: 100 % of control

## CC1=CC(=O)[C@@H](O)[C@]2(C)[C@H]3[C@@]4(O)OC[C@]35[C@H]([C@@H](C)[C@H]4O)[C@@H](O)C(=O)O[C@@H]5C[C@@H]12
dose: 1.0 mg/kg/injection, schedule: Q01DX010 (ip), vehicle: steriod suspending solution
  T/C: 150 % of control
dose: 1.5 mg/kg/injection, schedule: Q01DX010 (ip), vehicle: acetone
  T/C: 100 % of control
dose: 2.0 mg/kg/injection, schedule: Q01DX010 (ip), vehicle: steriod suspending solution
  T/C: 107 % of control
dose: 3.0 mg/kg/injection, schedule: Q01DX010 (ip), vehicle: acetone
  T/C: 103 % of control
dose: 4.0 mg/kg/injection, schedule: Q01DX010 (ip), vehicle: steriod suspending solution
  T/C: 107 % of control
dose: 6.0 mg/kg/injection, schedule: Q01DX010 (ip), vehicle: acetone
  T/C: 115 % of control
dose: 8.0 mg/kg/injection, schedule: Q01DX010 (ip), vehicle: steriod suspending solution
  T/C: 150 % of control
dose: 12.0 mg/kg/injection, schedule: Q01DX010 (ip), vehicle: acetone
  T/C: 123 % of control

## OCCCC1CCCCC1
[2]
  T/C: 111 % of control
[3]
  T/C: 113 % of control
[5]
  T/C: 117 % of control

## CCCC(C)(C)c1cc(C(C)C)cc(C(C)(C)CCC)c1O
dose: 12.5 mg/kg/injection, schedule: Q01DX009 (ip), vehicle: other
  T/C: 112 % of control
dose: 25.0 mg/kg/injection, schedule: Q01DX009 (ip), vehicle: other
  T/C: 118 % of control
dose: 50.0 mg/kg/injection, schedule: Q01DX009 (ip), vehicle: other
  T/C: 97 % of control

## O=S(=O)(c1ccccc1CO)c1ccccc1CO
[6]
  T/C: 98 % of control
[7]
  T/C: 95 % of control
dose: 400.0 mg/kg/injection, schedule: Q04DX002 (ip), vehicle: saline with Tween-80
  T/C: 100 % of control

## CCOC(=O)CCC(NC(=O)c1ccc(N(C)S(=O)(=O)c2ccc(C)cc2)c(F)c1)C(=O)OCC (configuration not stated)
dose: 75.0 mg/kg/injection, schedule: Q04DX003 (ip), vehicle: saline
  T/C: 95 % of control
dose: 150.0 mg/kg/injection, schedule: Q04DX003 (ip), vehicle: saline
  T/C: 108 % of control
dose: 300.0 mg/kg/injection, schedule: Q04DX003 (ip), vehicle: saline
  T/C: 100 % of control

## NC(COc1ccccc1)Cc1ccccc1 (configuration not stated)
dose: 25.0 mg/kg/injection, schedule: Q04DX003 (ip), vehicle: saline with Tween-80
  T/C: 113 % of control
dose: 25.0 mg/kg/injection, schedule: Q04DX003 (ip), vehicle: suspension in saline
  T/C: 90 % of control
[8]
  T/C: 123 % of control
dose: 50.0 mg/kg/injection, schedule: Q04DX003 (ip), vehicle: suspension in saline
  T/C: 90 % of control
[9]
  T/C: 105 % of control
[4]
  T/C: 109 % of control
dose: 100.0 mg/kg/injection, schedule: Q04DX003 (ip), vehicle: suspension in saline
  T/C: 98 % of control

## COc1cc2c(c(OC)c1OC)-c1ccc(OC)c(=O)cc1[C@@H](NC(=O)CF)CC2
dose: 0.09 mg/kg/injection, schedule: Q01DX009 (ip), vehicle: saline with Tween-80
  T/C: 187 % of control
dose: 0.09 mg/kg/injection, schedule: Q01DX009 (ip), vehicle: saline
  T/C: 188 % of control
dose: 0.18 mg/kg/injection, schedule: Q01DX009 (ip), vehicle: saline with Tween-80
  T/C: 232 % of control
dose: 0.18 mg/kg/injection, schedule: Q01DX009 (ip), vehicle: saline
  T/C: 257 % of control
dose: 0.37 mg/kg/injection, schedule: Q01DX009 (ip), vehicle: saline
  T/C: 103 % of control
dose: 46.2 micrograms/kg/injection, schedule: Q01DX009 (ip), vehicle: saline with Tween-80
  T/C: 158 % of control
dose: 185.0 micrograms/kg/injection, schedule: Q01DX009 (ip), vehicle: saline with Tween-80
  T/C: 89 % of control
dose: 370.0 micrograms/kg/injection, schedule: Q01DX009 (ip), vehicle: saline with Tween-80
  T/C: 247 % of control

## C(=N\c1ncn[nH]1)/c1ccco1
[10]
  T/C: 111 % of control
dose: 100.0 mg/kg/injection, schedule: Q01DX009 (ip), vehicle: saline with Tween-80
  T/C: 99 % of control
dose: 200.0 mg/kg/injection, schedule: Q01DX009 (ip), vehicle: saline with Tween-80
  T/C: 102 % of control

## O=C(O)C1CC/C=C\CCC1 (configuration not stated)
[11]
  T/C: 100 % of control
[12]
  T/C: 100 % of control
[13]
  T/C: 91 % of control

## N#CC1=C(N)NC(=O)C(C(N)=O)C1c1ccccc1Cl (configuration not stated)
dose: 50.0 mg/kg/injection, schedule: Q01DX005 (ip), vehicle: saline with Tween-80
  T/C: 89 % of control
dose: 100.0 mg/kg/injection, schedule: Q01DX005 (ip), vehicle: saline with Tween-80
  T/C: 92 % of control
dose: 200.0 mg/kg/injection, schedule: Q01DX005 (ip), vehicle: saline with Tween-80
  T/C: 92 % of control
